# Counter-ions that a name gives are not always drawn.
# How the values were obtained:
# schizophrenia = conditions: cited from earlier work; for antipsychotic effect: low doses
# [1] = test system: neural feeding mechanisms; conditions: rats; cited from earlier work
# human D1 receptor = molecular target: T1, human D1 receptor (Homo sapiens, UniProt P21728); test: Adenylate cyclase activity (cAMP stimulation in HEK-D1 cells); assay type: cell-based; conditions: read-out: IA (relative intrinsic activity to dopamine)
# T1 construct: expressed in transfected cells; host or cells: HEK-D1 cells (HEK cells expressing the human D1 clone)
# T1 sequence (P21728 whole entry): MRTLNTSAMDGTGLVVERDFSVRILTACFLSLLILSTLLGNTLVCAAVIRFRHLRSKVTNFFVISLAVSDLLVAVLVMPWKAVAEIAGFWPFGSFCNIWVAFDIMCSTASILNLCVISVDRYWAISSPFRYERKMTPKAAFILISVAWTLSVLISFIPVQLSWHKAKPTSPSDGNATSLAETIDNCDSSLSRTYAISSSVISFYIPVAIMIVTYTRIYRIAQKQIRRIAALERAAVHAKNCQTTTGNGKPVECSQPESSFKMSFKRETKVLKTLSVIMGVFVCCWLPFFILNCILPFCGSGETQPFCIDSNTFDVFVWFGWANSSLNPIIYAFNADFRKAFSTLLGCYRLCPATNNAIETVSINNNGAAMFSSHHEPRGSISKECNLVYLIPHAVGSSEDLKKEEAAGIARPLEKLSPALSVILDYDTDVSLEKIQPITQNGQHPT
# Procedure: Adenylate cyclase activity: Human D1 receptor.
# The interaction of dopamine or a dopamine D-1 receptor agonist with the D-1 receptor causes a dose-dependent increase in the adenylate cyclase-catalyzed conversion of adenosine triphosphate (ATP) to cyclic adenosine monophosphate (cAMP). The functional activity of the compounds of the invention was determined by assaying their ability to either stimulate the enzyme adenylate cyclase to produce cAMP (agonist activity). Assays were conducted in 24-well or 48-well tissue culture plates. The assay buffer consisted of DPBS containing CaCl2 and MgCl2, 0.1% glucose, 0.5 mM IBMX, 0.004% ascorbic acid and 10 μM propranolol to inhibit potential cross activation of the endogenous β-receptor. Culture medium was removed, and HEK-D1 cell was washed once with assay buffer, and 400 μl fresh assay buffer was added for 10 min. Next, 100 μl of dopamine or dopamine agonist, dissolved in assay buffer, was added to the cell for an additional 15 min, and incubations were terminated with 500 μL 0.2N HCl. cAMP contents were determined by RIA using the automated Attoflo™ system (Rockville, Md.).
# The hD1c ED50 level is a measure of the potency, showing the concentration (nM) at which a 50% response is obtained; a lower number indicates a higher potency. High intrinsic activity (IA) indicates the activity of the compound as a dopamine agonist.
# acute renal failure = conditions: in combination with diuretics, patients; cited from earlier work
# [2] = test system: striatal dopamine receptors; test: Rotation behavior, rat rotational model (6-hydroxydopamine unilateral lesion); assay type: in vivo; conditions: sc, 6-hydroxydopamine-lesioned rats
# Procedure: The behavioral assay used was based on the rat rotational model. Striatal dopamine was depleted by the intracranial injection of 6-hydroxydopamine, a neurotoxin which specifically destroys catecholaminergic neurons. […] This unilateral lesioning of dopamine-containing neurons causes the post-synaptic dopamine receptors to become supersensitive to dopaminergic stimulation in behavioral assays. […] Agonist activity was measured by the ability of the test compound to induce rotation.
# A lower number indicates a higher potency.
# Parkinson's disease = conditions: alone, some early Parkinson's disease patients; cited from earlier work
# dopamine receptor = conditions: cited from earlier work
SMILES,Emax (human D1 receptor) [%],other results
Oc1cc2c(cc1O)C(c1ccccc1)CNCC2 (stereo not shown) [SKF 38393],–,effect on side-effects of haloperidol (schizophrenia; in conjunction with haloperidol): ameliorate the undesired side-effects of the haloperidol; effect on food intake [1]: decrease food intake by rats
"Oc1cc2c(cc1O)[C@@H]1c3cccnc3CN[C@H]1CC2 (relative stereo) [Example 1, trans-4,6-diaza-5,6,6a,7,8,12b-hexahydrobenzo[c]phenanthrene 10,11-diol dihydrobromide]",125,–
"CCCCc1cnc2c(c1)[C@H]1c3cc(O)c(O)cc3CC[C@@H]1NC2 (relative stereo) [Example 8, trans-4,6-diaza-5,6,6a,7,8,12b-hexahydro-2-butylbenzo[c]phenanthrene 10,11-diol dihydrobromide]",118,–
"Cc1cnc2c(c1)[C@H]1c3cc(O)c(O)cc3CC[C@@H]1NC2 (relative stereo) [Example 7, trans-4,6-diaza-5,6,6a,7,8,12b-hexahydro-2-methylbenzo[c]phenanthrene 10,11-diol dihydrobromide]",156,–
NCCc1ccc(O)c(O)c1 [dopamine],–,effect on acute renal failure (acute renal failure): reverse radio-contrast media-induced acute renal failure
CN1CCc2cccc3c2[C@H]1Cc1ccc(O)c(O)c1-3 [apomorphine],–,antipsychotic effect (schizophrenia): produce antipsychotic effects
"Cc1cc2c(nc1C)CN[C@H]1CCc3cc(O)c(O)cc3[C@H]21 (relative stereo) [Example 9, trans-4,6 diaza-5,6,6a,7,8,12b-hexahdro-2,3-dimethylbenzo[c]phenanthrene 10,11-diol dihydrobromide]",134,–
"Oc1cc2c(cc1O)[C@@H]1c3ccncc3CN[C@H]1CC2 (relative stereo) [Example 13, trans-3,6-diaza-5,6,6a,7,8,12b-hexahydrobenzo[c]phenanthrene 10,11-diol dihydrobromide]",131,–
"Oc1cc2c(cc1O)[C@@H]1c3ccc(F)nc3CN[C@H]1CC2 (relative stereo) [Example 5, trans-4,6-diaza-3-fluoro-5,6,6a,7,8,12 b-hexahydrobenzo[c]phenanthrene 10,11-diol dihydrobromide]",141,Rotation behavior EC50 [2]: 0.82 µmol/kg
"Oc1cc2c(cc1O)[C@@H]1c3cc4c(nc3CN[C@H]1CC2)CCCC4 (relative stereo) [Example 10, trans-4,6-diaza-5,6,6a,7,8,12b-hexahydro-2,3-cyclohexenobenzo[c]phenanthrene 10,11-diol dihydrobromide]",136,–
CC(C)C[C@H]1C(=O)N2CCC[C@H]2[C@]2(O)O[C@](NC(=O)[C@@H]3C=C4c5cccc6[nH]c(Br)c(c56)C[C@H]4N(C)C3)(C(C)C)C(=O)N12 [Bromocriptine],–,effect on Parkinson's disease symptoms (Parkinson's disease): relieve Parkinson's disease symptoms in some early Parkinson's disease patients; antipsychotic effect (schizophrenia): produce antipsychotic effects
"Cc1cncc2c1CN[C@H]1CCc3cc(O)c(O)cc3[C@H]21 (relative stereo) [Example 14, trans-2,6-diaza-4-methyl-5,6,6a,7,8,12b-hexahydrobenzo[c]phenanthrene 10,11-diol dihydrobromide]",75,–
"Oc1cc2c(cc1O)[C@@H]1c3cnccc3CN[C@H]1CC2 (relative stereo) [Example 11, trans-2,6-diaza-5,6,6a,7,8,12b-hexahydrobenzo[c]phenanthrene 10,11-diol dihydrobromide]",81,–
"Oc1cc2c(cc1O)[C@@H]1c3cncc(F)c3CN[C@H]1CC2 (relative stereo) [Example 12, trans-2,6-diaza-4-fluoro-5,6,6a,7,8,12b-hexahydrobenzo[c]phenanthrene 10,11-diol dihydrobromide]",126,–
"Cc1ccc2c(n1)CN[C@H]1CCc3cc(O)c(O)cc3[C@H]21 (relative stereo) [Example 2, trans-4,6-diaza-5,6,6a,7,8,12b-hexahydro-3-methylbenzo[c]phenanthrene 10,11-diol dihydrobromide]",121,–
Oc1cc2c(cc1O)[C@H]1c3ccccc3CN[C@@H]1CC2 (racemic) [dihydrexidine],–,dopamine agonist activity (dopamine receptor): active as a dopamine agonist
"CCCc1ccc2c(n1)CN[C@H]1CCc3cc(O)c(O)cc3[C@H]21 (relative stereo) [Example 3, trans-4,6-diaza-5,6,6a,7,8,12b-hexahydro-3-propylbenzo[c]phenanthrene 10,11-diol dihydrobromide]",116,Rotation behavior EC50 [2]: 0.14 µmol/kg
"COc1ccc2c(n1)CN[C@H]1CCc3cc(O)c(O)cc3[C@H]21 (relative stereo) [Example 4, trans-4,6-diaza-5,6,6a,7,8,12b-hexahydro-3-methoxybenzo[c]phenanthrene 10,11-diol dihydrobromide]",114,–
